Values after ≈ are worked out from the molar mass of the structure shown. Values joined by “and” are separate entries in the source; they are usually repeats but may differ in a detail not shown here. Equal values may be shown once. Read-outs that look alike come from different tables or passages of the source.
Test system: Phytophthora infestans (resistant to metalaxyl)
Type: in vivo
[1] = 16 mg/L active ingredient, 5 days post inoculation, Table 2
[2] = 16 mg/L active ingredient, 6 day post inoculation, Table 6
[3] = 62 mg/L active ingredient, 5 days post inoculation, Table 2
[4] = 62 mg/L active ingredient, 6 day post inoculation, Table 6
[5] = 250 mg/L active ingredient, 5 days post inoculation, Table 2
[6] = 250 mg/L active ingredient, 6 day post inoculation, Table 6
[7] = 250 mg/L active ingredient, Table 27
[8] = 500 mg/L active ingredient, Table 27
[9] = 1000 mg/L active ingredient, 6 day post inoculation, Table 6
[10] = 1000 mg/L active ingredient, Table 27
[11] = Cultivar Cara, 16 mg/L active ingredient, 5 days post inoculation, Table 3
[12] = Cultivar Cara, 62 mg/L active ingredient, 5 days post inoculation, Table 3
[13] = Cultivar Cara, 250 mg/L active ingredient, 5 days post inoculation, Table 3
[14] = Cultivar Cara, 1000 mg/L active ingredient, 5 days post inoculation, Table 3
[15] = Cultivar Draga, 16 mg/L active ingredient, 5 days post inoculation, Table 3
[16] = Cultivar Draga, 62 mg/L active ingredient, 5 days post inoculation, Table 3
[17] = Cultivar Draga, 250 mg/L active ingredient, 5 days post inoculation, Table 3
[18] = Cultivar Draga, 1000 mg/L active ingredient, 5 days post inoculation, Table 3
[19] = 16 mg/L active ingredient, 7 days post inoculation, Table 8
[20] = 62 mg/L active ingredient, 7 days post inoculation, Table 8
[21] = 250 mg/L active ingredient, 7 days post inoculation, Table 8
[22] = 250 mg/L active ingredient, 4 days post inoculation, Table 11
[23] = 25 mg/L active ingredient, 5 days post inoculation, Table 12
[24] = 125 mg/L active ingredient, 4 day post inoculation, Table 7

In the case of `CC(N)CC(=O)O` (stereo not drawn) [BABA, DLβ-amino-butanoic acid], the “Percent Disease Control” value (16 mg/L active ingredient, 5 day post inoculation, Table 4) is reported as 3%, the “Percent Disease Control” value [1] is reported as 3% and the “Percent Disease Control” value [2] is reported as 22%. For the same compound, the “Percent Disease Control” value (16 mg/L active ingredient, 7 days, Table 5) was 14%, the “Percent Disease Control” value (32 mg/L active ingredient, 5 days post inoculation, Table 1) was 0% and the “Percent Disease Control” value (62 mg/L active ingredient, 5 day post inoculation, Table 4) was 24%. The “Percent Disease Control” value [3] was 24%, the “Percent Disease Control” value [4] was 22% and the “Percent Disease Control” value (62 mg/L active ingredient, 7 days, Table 5) was 14%. The “Percent Disease Control” value (125 mg/L active ingredient, 5 days post inoculation, Table 1) was 0%, the “Percent Disease Control” value (250 mg/L active ingredient, 5 day post inoculation, Table 4) was 18% and the “Percent Disease Control” value (250 mg/L active ingredient, 5 days post inoculation, Table 1) was 0%. For the same compound, the “Percent Disease Control” value [5] was 18%, the “Percent Disease Control” value [6] was 22% and the “Percent Disease Control” value (250 mg/L active ingredient, 7 days, Table 5) was 14%. The “Percent Disease Control” value [7] was 38%, the “Percent Disease Control” value [8] was 75% and the “Percent Disease Control” value (1000 mg/L active ingredient, 5 day post inoculation, Table 4) was 64%. For the same compound, the “Percent Disease Control” value (1000 mg/L active ingredient, 5 days post inoculation, Table 1) was 13%, the “Percent Disease Control” value (1000 mg/L active ingredient, 5 days post inoculation, Table 2) was 64% and the “Percent Disease Control” value [9] was 69%. For the same compound, the “Percent Disease Control” value (1000 mg/L active ingredient, 7 days, Table 5) was 36%, the “Percent Disease Control” value [10] was 93% and the ED90 (7 days) was 2617 µg/mL (≈ 25400 µM). For the same compound, the “Percent Disease Control” value [11] was 9%, the “Percent Disease Control” value [12] was 9% and the “Percent Disease Control” value [13] was 9%. For the same compound, the “Percent Disease Control” value [14] was 24%, the “Percent Disease Control” value [15] was 0% and the “Percent Disease Control” value [16] was 0%. The “Percent Disease Control” value [17] was 0% and the “Percent Disease Control” value [18] was 53%.

For `CCO[PH](=O)O` [Fosetyl − Al, phosetyl-aluminium], the “Percent Disease Control” value [11] was 9%, the “Percent Disease Control” value [12] was 24% and the “Percent Disease Control” value [13] was 24%. For the same compound, the “Percent Disease Control” value [14] was 70%, the ED90 (Cultivar Cara, 5 days post inoculation, Table 3) was 1390 µg/mL (≈ 12600 µM) and the “Percent Disease Control” value [15] was 33%. For the same compound, the “Percent Disease Control” value [16] was 33%, the “Percent Disease Control” value [17] was 50% and the “Percent Disease Control” value [18] was 93%. It also gave an ED90 (Cultivar Draga, 5 days post inoculation, Table 3) of 856 µg/mL (≈ 7780 µM).

For `[Cu+2].[OH-].[OH-]` [Cu(OH)2, copper hydroxide], the “Percent Disease Control” value (4 mg/L active ingredient, 7 days post inoculation, Table 8) was 0%, the “Percent Disease Control” value [19] was 0% and the “Percent Disease Control” value [20] was 13%. For the same compound, the “Percent Disease Control” value [21] was 75% and the ED90 (7 days post inoculation, Table 8) was 298 µg/mL.

With `O=C1c2ccccc2C(=O)N1SC(Cl)(Cl)Cl` [FOLPET, Folpet] the “Percent Disease Control” value (4 mg/L active ingredient, 4 days post inoculation, Table 11) was 70%, the “Percent Disease Control” value (16 mg/L active ingredient, 4 days post inoculation, Table 11) was 75% and the “Percent Disease Control” value [2] was 81%. The “Percent Disease Control” value (62 mg/L active ingredient, 4 days post inoculation, Table 11) was 90%, the “Percent Disease Control” value [4] was 95% and the “Percent Disease Control” value [22] was 95%. The “Percent Disease Control” value [6] was 98%, the “Percent Disease Control” value [9] was 100% and the ED90 (4 days post inoculation, Table 11) was 141 µg/mL (≈ 475 µM). For the same compound, the ED90 (6 day post inoculation, Table 6) was 84 µg/mL (≈ 283 µM).

With `CCNC(=O)NC(=O)/C(C#N)=N/OC` [Cymoxanil] the “Percent Disease Control” value (4 mg/L active ingredient, 5 days post inoculation, Table 2) was 36%, the “Percent Disease Control” value [1] was 73% and the “Percent Disease Control” value [2] was 83%. The “Percent Disease Control” value [3] was 64%, the “Percent Disease Control” value [4] was 86% and the “Percent Disease Control” value [5] was 98%. For the same compound, the “Percent Disease Control” value [6] was 91%, the “Percent Disease Control” value [9] was 100% and the ED90 (in vivo) was 128 µg/mL and 183 µg/mL.

With `CSC(=O)c1cccc2nnsc12` [BION, Acibenzolar-s-methyl] the “Percent Disease Control” value [7] was 13%, the “Percent Disease Control” value [8] was 25% and the “Percent Disease Control” value [10] was 78%. The ED90 (Table 27) was 1173 µg/mL (≈ 5580 µM).

With `Cc1ccc(C(C)NC(=O)[C@@H](NC(=O)OC(C)C)C(C)C)cc1` (some centres unmarked) [Fencaramid] the “Percent Disease Control” value (2 mg/L active ingredient, 4 day post inoculation, Table 7) was 0%, the “Percent Disease Control” value (2 mg/L active ingredient, 5 days post inoculation, Table 12) was 0% and the “Percent Disease Control” value (8 mg/L active ingredient, 4 day post inoculation, Table 7) was 50%. For the same compound, the “Percent Disease Control” value (8 mg/L active ingredient, 5 days post inoculation, Table 12) was 50%, the “Percent Disease Control” value [23] was 100% and the “Percent Disease Control” value (31 mg/L active ingredient, 5 days post inoculation, Table 12) was 98%. For the same compound, the “Percent Disease Control” value (32 mg/L active ingredient, 4 day post inoculation, Table 7) was 98%, the “Percent Disease Control” value [24] was 100% and the ED90 (4 day post inoculation, Table 7) was 19 µg/mL (≈ 59.3 µM). The ED90 (5 days post inoculation, Table 12) was 19 µg/mL (≈ 59.3 µM).

With `CCCCCCCCOC(=O)CC(C)NC(=O)c1ccccc1` (racemic) [N-benzoyl octyl ester derivative of BABA] the “Percent Disease Control” value [19] was 3%, the “Percent Disease Control” value (16 mg/L active ingredient, 7 days post inoculation, Table 9) was 0% and the “Percent Disease Control” value (16 mg/L active ingredient, 7 days post inoculation, Table 10) was 0%. For the same compound, the “Percent Disease Control” value [23] was 15%, the “Percent Disease Control” value [20] was 25% and the “Percent Disease Control” value (62 mg/L active ingredient, 7 days post inoculation, Table 9) was 0%. For the same compound, the “Percent Disease Control” value (62 mg/L active ingredient, 7 days post inoculation, Table 10) was 0%, the “Percent Disease Control” value [24] was 15% and the “Percent Disease Control” value (250 mg/L active ingredient, 4 day post inoculation, Table 7) was 25%. The “Percent Disease Control” value [22] was 63%, the “Percent Disease Control” value [21] was 25% and the “Percent Disease Control” value (250 mg/L active ingredient, 7 days post inoculation, Table 9) was 0%. The “Percent Disease Control” value (250 mg/L active ingredient, 7 days post inoculation, Table 10) was 0%, the “Percent Disease Control” value (500 mg/L active ingredient, 4 days post inoculation, Table 11) was 69% and the “Percent Disease Control” value (500 mg/L active ingredient, 5 days post inoculation, Table 12) was 25%. For the same compound, the “Percent Disease Control” value (1000 mg/L active ingredient, 4 day post inoculation, Table 7) was 50%, the “Percent Disease Control” value (1000 mg/L active ingredient, 4 days post inoculation, Table 11) was 85% and the “Percent Disease Control” value (1000 mg/L active ingredient, 5 days post inoculation, Table 12) was 50%. For the same compound, the “Percent Disease Control” value (1000 mg/L active ingredient, 7 days post inoculation, Table 8) was 75%, the “Percent Disease Control” value (1000 mg/L active ingredient, 7 days post inoculation, Table 9) was 25% and the “Percent Disease Control” value (1000 mg/L active ingredient, 7 days post inoculation, Table 10) was 25%. The “Percent Disease Control” value (2000 mg/L active ingredient, 4 day post inoculation, Table 7) was 53%, the “Percent Disease Control” value (2000 mg/L active ingredient, 4 days post inoculation, Table 11) was 89% and the “Percent Disease Control” value (2000 mg/L active ingredient, 5 days post inoculation, Table 12) was 53%.
